Among the test systems are BT-549 breast; CCRF-CEM leukemia; COLO 205 colon; EKVX NSCLC; HT29 colon; KM12 colon; M14 melanoma; NCI-H460 lung; SN12C renal; T-47D breast.
Test in all cases: NCI tumour cell line growth inhibition, 48 h

Several values for one entry are separate records, joined by “and”; a condition that tells them apart may be missing. Identical values can stand only once.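 How tested: cells in 96-well plates exposed to compound for 48 hours at five concentrations. GI50: concentration for 50% inhibition of growth. At the TGI there is no net growth.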

In the case of `COc1cccc2c1C(=O)c1c(O)c3c(c(O)c1C2=O)C[C@@](O)(C(=O)CO)CC3OC1CC(N)C(OC2CCCCO2)C(C)O1` (stereo partly drawn), the TGI in the experiment on BT-549 breast was 0.481 µM; in the experiment on EKVX NSCLC, 1.02 µM and 7.26 µM; in the experiment on HT29 colon, 1.81 µM and 17.1 µM; with KM12 colon, 0.583 µM and 3.09 µM; with NCI-H460 lung, 1.08 µM and 5.09 µM; in the experiment with T-47D breast it was 0.925 µM. Also, the GI50 was 0.00327 µM in the experiment with CCRF-CEM leukemia; 0.02 µM in the experiment with COLO 205 colon; 0.156 µM with EKVX NSCLC; 0.0381 µM with HT29 colon; 1.19 µM with KM12 colon; 0.0529 µM with M14 melanoma. For the same compound, in the experiment with SN12C renal, the GI50 was 0.0157 µM.

Consider `CC1(C)C(N2CCOCC2)CS1(=O)=O` (stereo not drawn), for which the TGI with BT-549 breast, in the experiment on CCRF-CEM leukemia, with COLO 205 colon, in the experiment on EKVX NSCLC, in the experiment on HT29 colon and in the experiment on KM12 colon was over 10 µM throughout. Moreover, the TGI with M14 melanoma, in the experiment with NCI-H460 lung, in the experiment with SN12C renal and in the experiment on T-47D breast was over 10 µM throughout.

As for `O=C(Oc1ccccc1)N(c1ccccc1)c1ccccc1`, the GI50 in the experiment with BT-549 breast was 18.2 µM; in the experiment with CCRF-CEM leukemia, 37 µM; with COLO 205 colon, 19.5 µM; in the experiment on EKVX NSCLC it was 18.7 µM; in the experiment with HT29 colon, 36.9 µM; with KM12 colon, 28.7 µM. The GI50 was 24.7 µM in the experiment with M14 melanoma, 26.4 µM with NCI-H460 lung, 27.7 µM in the experiment with SN12C renal and 24.9 µM in the experiment with T-47D breast. In addition, the TGI in the experiment with BT-549 breast was 41.2 µM; in the experiment on CCRF-CEM leukemia, over 100 µM; with COLO 205 colon, 44.7 µM; in the experiment on EKVX NSCLC it was over 100 µM; with HT29 colon, over 100 µM; with KM12 colon, over 100 µM. Further, the TGI in the experiment with M14 melanoma was 65.2 µM; with NCI-H460 lung it was 89.2 µM; with SN12C renal it was over 100 µM; in the experiment on T-47D breast, over 100 µM.

Turning to `CC(=Nc1ccc(N(C)C)cc1)c1ccccc1`, the TGI in the experiment on BT-549 breast was 33.2 µM; in the experiment with CCRF-CEM leukemia, 92.6 µM; in the experiment with COLO 205 colon, 34.9 µM; with EKVX NSCLC it was over 100 µM; with HT29 colon, 73.4 µM; in the experiment with KM12 colon, over 100 µM. The TGI with M14 melanoma is 29.9 µM; in the experiment on NCI-H460 lung, over 100 µM; in the experiment with SN12C renal it was 32.1 µM; with T-47D breast it was 55.4 µM.

As to `Cc1ccc(N(C=O)c2c([N+](=O)[O-])cc([N+](=O)[O-])c3c2=[N+]([O-])CN=3)cc1`, the TGI with BT-549 breast was 69 µM; with COLO 205 colon, 68.1 µM; in the experiment on EKVX NSCLC it was over 100 µM; in the experiment with HT29 colon it was over 100 µM; with KM12 colon, over 100 µM; in the experiment with M14 melanoma, 44.8 µM. The TGI in the experiment with NCI-H460 lung was over 100 µM; in the experiment on SN12C renal, over 100 µM; with T-47D breast, 39.7 µM.

With `O=C(O)CCC(c1ccccc1)(c1ccccc1)c1ccccc1`, in the experiment on BT-549 breast, the GI50 was 80.1 µM. Also, the TGI in the experiment on BT-549 breast was over 100 µM; in the experiment with CCRF-CEM leukemia it was over 100 µM; in the experiment on COLO 205 colon it was 97.6 µM; with EKVX NSCLC, over 100 µM; in the experiment on HT29 colon, over 100 µM; with KM12 colon it was over 100 µM. In addition, the TGI with M14 melanoma is over 100 µM; with NCI-H460 lung it was over 91.2 µM; in the experiment with SN12C renal it was over 100 µM; with T-47D breast, over 60.3 µM.

On to `COc1ccc(OC)c(Nc2nc3nonc3nc2Nc2cccc(Br)c2)c1`, for which the GI50 in the experiment on BT-549 breast was 0.537 µM; in the experiment with CCRF-CEM leukemia, 0.608 µM; in the experiment on COLO 205 colon it was 0.853 µM; in the experiment on HT29 colon it was 1.13 µM; in the experiment on KM12 colon, 1.24 µM; in the experiment on M14 melanoma, 1.5 µM. The GI50 in the experiment on NCI-H460 lung was 0.504 µM; in the experiment with SN12C renal, 0.405 µM; in the experiment on T-47D breast, 0.285 µM. In addition, the TGI in the experiment on BT-549 breast was 6.97 µM; in the experiment with CCRF-CEM leukemia, 17.2 µM; with COLO 205 colon, 2.73 µM; in the experiment with HT29 colon, over 100 µM; with KM12 colon, over 100 µM; with M14 melanoma, 44.7 µM. Besides, the TGI was over 100 µM with NCI-H460 lung, 7.07 µM in the experiment with SN12C renal and 2.17 µM in the experiment on T-47D breast.

As to `COc1ccc(Cn2cc(COc3cc(/C=C/C(=O)c4cc(OC)c(OC)c(OC)c4)ccc3OC)nn2)cc1`, the GI50 is 3.33 µM with BT-549 breast; 3.14 µM with CCRF-CEM leukemia; 4.36 µM in the experiment on COLO 205 colon; 3.65 µM with HT29 colon; 3.23 µM in the experiment with KM12 colon; 5.6 µM in the experiment on M14 melanoma. Also, the GI50 was 4.39 µM with NCI-H460 lung, 3.62 µM in the experiment on SN12C renal and 3.41 µM in the experiment on T-47D breast. Moreover, the TGI in the experiment with BT-549 breast is over 100 µM; with CCRF-CEM leukemia it was over 100 µM; in the experiment with COLO 205 colon it was over 100 µM; in the experiment on HT29 colon, 9.68 µM; in the experiment on KM12 colon, over 100 µM; in the experiment on M14 melanoma, over 100 µM. The TGI is 40.4 µM in the experiment with NCI-H460 lung, over 100 µM in the experiment with SN12C renal and over 100 µM in the experiment with T-47D breast.

Take `Cc1ccc(C[As+](c2ccccc2)(c2ccccc2)c2ccccc2)cc1`: the GI50 is 0.392 µM with BT-549 breast; 1.08 µM in the experiment with CCRF-CEM leukemia; 0.412 µM in the experiment with COLO 205 colon; 0.313 µM in the experiment with HT29 colon; 0.385 µM with KM12 colon; 0.704 µM in the experiment with M14 melanoma. Moreover, the GI50 is 0.674 µM with NCI-H460 lung, 1.25 µM in the experiment with SN12C renal and 0.125 µM in the experiment on T-47D breast. The TGI in the experiment on BT-549 breast stood at 8.26 µM; in the experiment on CCRF-CEM leukemia, 55 µM; in the experiment on COLO 205 colon it was 2.45 µM; in the experiment with HT29 colon, 11.5 µM; with KM12 colon, 4.46 µM; in the experiment with M14 melanoma, 10.8 µM. The TGI in the experiment on NCI-H460 lung was 8.36 µM; in the experiment with SN12C renal, 12.1 µM; in the experiment on T-47D breast, 10.3 µM.

Consider `Nc1ccccc1C#C/C=C\C#Cc1ccccc1C#CCO`, for which the GI50 in the experiment on BT-549 breast was 10.9 µM; in the experiment with COLO 205 colon, 11.8 µM; with EKVX NSCLC, 12 µM; in the experiment on KM12 colon, 1.81 µM; in the experiment with M14 melanoma, 7.68 µM; in the experiment on NCI-H460 lung, 8.73 µM. For the same compound, the GI50 was 9.46 µM in the experiment on SN12C renal and 16.9 µM in the experiment with T-47D breast. For the same compound, the TGI with BT-549 breast is 41.6 µM; in the experiment with COLO 205 colon, 31.6 µM; in the experiment on EKVX NSCLC, over 50 µM; in the experiment with KM12 colon it was 7.8 µM; in the experiment on M14 melanoma it was 26 µM; in the experiment on NCI-H460 lung, 22 µM. Also, the TGI in the experiment on SN12C renal is 27.4 µM; in the experiment with T-47D breast, over 50 µM.

The record behind these values is PubChem BioAssay (NCI).
